{
  "source": "patent US11058690B2",
  "about": "“Use of cytochrome bc1 complex inhibitor in preparing pharmaceutical composition” (BEIJING WEILANZHIYUAN MEDICAL TECHNOLOGY CO., LTD., priority 2017, dated 2021)",
  "key": {"[1]": {"system": "rat uterine smooth muscle", "assay": "contraction of isolated rat uterine smooth muscle strips induced by PGF2α", "assay_type": "cell-based", "details": "PGF2α (450 nM); for IC50: area under the contraction curve 10 minutes after drug, read-out: IC50, inhibition of uterine smooth muscle contraction", "procedure": "Female healthy Wistar rats weighing 230-270 g were used in the experiment. At 2 days before the experiment, Diethylstilbestrol suspension was injected intraperitoneally once at 0.1 mg/kg, resulting in artificial estrus. The rats were sacrificed by cervical dislocation, and the uterus was removed by laparotomy and immediately placed in a glass plate containing Tyrode's solution. Connective and adipose tissues attached to the uterine wall were carefully peeled off, the uterus was cut open along the mesangial line and laid flat on the bottom of the glass plate, then one side of the uterus was divided into left and right uterine muscle strips by using a surgical blade along the uterine contraction band running along smooth muscle, the two ends of the uterine muscle strip on one side were ligated with wires respectively, and then transferred into a nutrient tube which was aerated with oxygen and filled with 5 ml of Tyrode's solution and preheated to 37.2±0.5° C., with a lower end fixed and an upper end connected with a tension sensor. The materials stood for 20-30 minutes, liquid was changed 2-3 times, then the uterus was given a load of 1 g and kept for 30-60 minutes until the uterus had regular contraction waves, 40 mM KCL solution was provided for 10 minutes, and the function of the uterine muscle strips was evaluated. Then the muscle strips were relaxed and washed 2-3 times with Tyrode's solution, then let stand for 30 minutes; after standing, the uterine muscle strips were given a load of 1 g and kept for 30-60 minutes, and the administration and the observation were carried out after the uterine muscle strips contracted stably (i.e. regular contraction waveforms appear in a microcomputer display screen), the changes of relevant data such as contraction tension, amplitude and area under the contraction curve of the uterine smooth muscle strips were recorded, and the drug given was evaluated. During the experiment, the working temperature of the Tyrode's solution was kept at 37.2±0.5° C., and oxygen was continuously aerated into the nutrient tube with 1-2 bubbles per second. A cumulative dosing method was adopted, and 5 μl was administered each time, from low concentration to high concentration. A final drug concentration refers to the concentration of the drug dissolved in 5 ml Tyrode's solution in a […] tube.\nFluacrypyrim (FAPM), the first strobilurin acaricide developed by BASF SE and Nippon Soda Co., Ltd., is a Qo site inhibitor of the mitochondrial cytochrome bc1 complex. […] The area under the smooth muscle contraction curve was calculated before drug intervention and 10 minutes after different doses of drug intervention respectively. A drug dose-effect curve was plotted by taking the area under the smooth muscle contraction curve caused by PGF2α as 100%, to calculate the median effective dose (IC50 value) of the drug for inhibiting uterine smooth muscle contraction."}, "[2]": {"system": "SD rats", "assay": "carrageenan-induced rat paw swelling test", "assay_type": "in vivo", "procedure": "Eighteen healthy adult male mice were randomly divided into 3 groups. FAPM (100 mg/kg) was administered intraperitoneally once a day for 3 consecutive days. The control group was injected with the same amount of solvent, and the positive drug dexamethasone (4 mg/kg) was administered intragastrically once a day for 3 consecutive days. Thirty minutes after the last administration, 0.1 mL of 1% carrageenan was injected subcutaneously into the right hind paw of each rat, and the plantar thickness was measured before injection and 1, 2 and 3 hours after injection. Three hours later, the rats were sacrificed by dislocation. The feet were cut off from the knee joints and weighed on a precision balance. The swelling degree of the paw (right foot weight-left foot weight) was calculated."}, "[3]": {"system": "rat uterine smooth muscle", "assay": "contraction of rat uterine smooth muscle induced by oxytocin", "assay_type": "cell-based", "details": "oxytocin (1 mU/ml)", "procedure": "Female healthy Wistar rats weighing 230-270 g were used in the experiment. At 2 days before the experiment, Diethylstilbestrol suspension was injected intraperitoneally once at 0.1 mg/kg, resulting in artificial estrus. The rats were sacrificed by cervical dislocation, and the uterus was removed by laparotomy and immediately placed in a glass plate containing Tyrode's solution. […] The materials stood for 20-30 minutes, liquid was changed 2-3 times, then the uterus was given a load of 1 g and kept for 30-60 minutes until the uterus had regular contraction waves, 40 mM KCL solution was provided for 10 minutes, and the function of the uterine muscle strips was evaluated. Then the muscle strips were relaxed and washed 2-3 times with Tyrode's solution, then let stand for 30 minutes; after standing, the uterine muscle strips were given a load of 1 g and kept for 30-60 minutes, and the administration and the observation were carried out after the uterine muscle strips contracted stably (i.e. regular contraction waveforms appear in a microcomputer display screen), the changes of relevant data such as contraction tension, amplitude and area under the contraction curve of the uterine smooth muscle strips were recorded, and the drug given was evaluated. […]"}, "[4]": {"system": "Mouse mononuclear macrophage RAW 264.7", "assay": "nitric oxide production by LPS-stimulated macrophages (Griess assay)", "assay_type": "cell-based", "details": "LPS 1 μg/mL, 24 h"}, "[5]": {"system": "mice", "assay": "xylene-induced mouse ear swelling test", "assay_type": "in vivo", "procedure": "Fifty healthy adult male mice were randomly divided into 5 groups. […] […] One hour after administration, 20 μL of xylene was evenly applied to both sides of the right ear of mouse, and xylene was not applied to the left ear as self control. One hour later, the two ears were cut off, and two ear pieces were removed from the same parts of the two ears with a 6 mm hole punch. The two ear pieces were weighed on a precision balance, and the swelling degree (right ear piece weight-left ear piece weight) and swelling inhibition rate (right ear piece weight-left ear piece weight)/left ear piece weight×100%) were calculated."}},
  "data": [
    {"smiles": "CO/C=C(/C(=O)OC)c1ccccc1COc1cc(C(F)(F)F)nc(OC(C)C)n1", "note": "[FAPM, fluacrypyrim]", "values": [
      {"measurement": "inhibitory effect on PGF2α-induced contraction", "setting": "[1]; amplitude and frequency", "value": "in a dose-dependent manner"},
      {"measurement": "IC50", "setting": "[1]", "value": "1690 ± 160", "unit": "nM"},
      {"measurement": "IC50", "setting": "[1]; Rattus norvegicus, 10 min", "value": "1840 ± 80", "unit": "nM"},
      {"measurement": "Paw swelling thickness 1 h", "setting": "[2]; 100 mg/Kg intraperitoneal once a day for 3 days, 1 h after carrageenan", "value": "5.72 ± 0.29", "unit": "mm"},
      {"measurement": "Paw swelling thickness 2 h", "setting": "[2]; 100 mg/Kg intraperitoneal once a day for 3 days, 2 h after carrageenan", "value": "5.92 ± 0.19", "unit": "mm"},
      {"measurement": "Paw swelling thickness 3 h", "setting": "[2]; 100 mg/Kg intraperitoneal once a day for 3 days, 3 h after carrageenan", "value": "6.24 ± 0.20", "unit": "mm"},
      {"measurement": "Paw swelling (right foot weight-left foot weight)", "setting": "[2]; 100 mg/Kg intraperitoneal once a day for 3 days, 3 hours after carrageenan", "value": "0.834 ± 0.32", "unit": "g"},
      {"measurement": "carrageenan-induced rat paw swelling", "setting": "[2]; 100 mg/kg intraperitoneal", "value": "significantly inhibited"},
      {"measurement": "IC50", "setting": "[3]", "value": "1600 ± 80", "unit": "nM"},
      {"measurement": "Maximum inhibition rate", "setting": "[4]; in %", "value": 80, "unit": "%"},
      {"measurement": "IC50", "setting": "[4]; Mus musculus, RAW264.7, read-out: IC50, NO production", "value": 3800, "unit": "nM"},
      {"measurement": "Ear swelling", "setting": "[5]; 100 mg/Kg intraperitoneal, 1 hour after xylene", "value": "7.83 ± 3.85", "unit": "mg"},
      {"measurement": "xylene-induced mouse ear swelling", "setting": "[5]; 100 mg/kg intraperitoneal", "value": "significantly inhibited"}
    ]}
  ]
}
